From patent US9889078B2, “Skin and/or hair whitening mixture” (Symrise AG, priority 2013, dated 2018)

Tested on: human full-thickness skin explants
Assay: ex-vivo study of lightening efficacy (melanin content) in human full-thickness skin explants
Format: cell-based
Details: for Melanin reduction: Reduction vs. Standard (%): treatments versus placebo at day 6, phototype tanned
Description: To evaluate the lightening efficacy of the test products an ex-vivo study using human full-thickness skin explants was performed. […] 1,2-Pentandiol was added to some of the blends to improve the penetration of the active ingredients into the skin layers.

Compound | Melanin reduction: Reduction vs. Standard (%) | further results
CC(C)=CCC[C@@](C)(O)[C@@H]1CC=C(C)CC1 [Bisabolol] | – | efficacy (melanin decrease) (0.08% Bisabolol alone, ex vivo model, tanned phototype): did not have any efficacy
CC(c1ccccc1)c1ccc(O)cc1O (centres unmarked) [Example C2, Phenylethyl Resorcinol] | −13% | –
CC(c1ccccc1)c1ccc(O)cc1O (centres unmarked) [Example C3, Phenylethyl Resorcinol] | −21% | –
CC(C)=CCC[C@](C)(O)C1CC=C(C)CC1 (some centres unmarked) [Example C4, Bisabolol] | 0% | –
CC(c1ccccc1)c1ccc(O)cc1O (centres unmarked) [Pheneylethyl Resorcinol, Phenylethyl Resorcinol] | – | melanin decrease (0.4% Phenylethyl Resorcinol alone, tanned phototype): 21%
